Read-outs that look alike come from different tables or passages of the source.
What was measured:
[1] = tested on: flank organ hair; assay: Hamster flank organ hair growth inhibition by topical inhibitor (hair mass, treated organ vs vehicle-treated organ); assay type: in vivo, male intact Golden Syrian hamsters; settings: for Flank Organ Hair Mass, Treated: ± SE; for Hair Growth Inhibition: percent decrease vs vehicle-treated organ
Method: A series of compositions was prepared each containing a given concentration of specified inhibitor in the foregoing vehicle, as listed in Table 1 below.
Four groups (eight animals in each group) of male intact Golden Syrian hamsters were provided. These animals were considered acceptable models for human beard hair growth in that they display oval shaped flank organs, one on each side, each about 8 mm in major diameter, which grow thick black and coarse hair similar to human beard hair. These organs produce hair in response to androgens in the hamster. The flank organs of each hamster were depilated by applying a thioglycolate-based chemical depilatory (Surgex), and to one organ of each animal was applied 10 μL. of vehicle alone once a day, while to the other organ of each animal was applied an equal amount of vehicle containing inhibitor. After 14 such applications (Mon.-Fri.) over a period of 18 days, the flank organs were shaved and the amount of recovered hair (hair mass) from each was weighed. The extent of reduction in hair growth by the inhibitor was expressed as the percent decrease in hair mass on the organ treated with inhibitor as compared to the organ treated with vehicle alone. As a control, one group of eight animals had both flank organs of each animal treated with vehicle alone.
The same procedure was followed as in Example 1 except that the vehicle used for the compositions consisted of water alone.
The same test procedure was followed except that the compositions were applied to the hamster flank organs every day for fifteen successive days, at which time hair mass was measured; the results were as follows: […]

[2] = tested on: brain 4-aminobutyric acid levels; settings: transformation catalyzed by mitochondrial monoamine oxidase; cited from earlier work
[3] = tested on: hamster flank organ; settings: topical application; cited from earlier work
[4] = tested on: sebum excretion; settings: topical, cited from earlier work
[5] = tested on: hair growth; settings: intact males; Table 3, Group VI vs. Group X; cited from earlier work
[6] = tested on: sebaceous glands; settings: cited from earlier work
[7] = Table 1, 5% of each inhibitor in water/ethanol/glycol vehicle, 10 μL once a day, 14 applications over 18 days
[8] = Table 1, 5% of each inhibitor in water/ethanol/glycol vehicle, 14 applications over 18 days
[9] = Table 3, 5% of each inhibitor, Example 1 vehicle, every day for fifteen successive days

## CN(CCON)C[C@H]1O[C@@H](n2cnc3c(N)ncnc32)[C@H](O)[C@@H]1O [MAOEA, 5'-deoxy-5'-[N-methyl-N-(2-[aminooxy]ethyl)] aminoadenosine]
[1]; [7]
  Flank Organ Hair Mass, Treated: 2.03 ± .18 mg
[1]; [8]
  Hair Growth Inhibition: 29.4 ± 5.9%

## C#CC(N)CCCN (stereo not shown) [5-hexyne-1,4-diamine]
[2]
  brain 4-aminobutyric acid levels: increases in brain 4-aminobutyric acid levels

## CCC(=NNC(=N)N)C(CC)=NNC(=N)N [DEGBG, diethylglyoxal bis(guanylhydrazone)]
[1]; Table 2, 2.5% inhibitor, vehicle water alone, 14 applications over 18 days
  Flank Organ Hair Mass, Treated: 2.62 ± .15 mg
[1]; Table 2, 2.5% inhibitor, vehicle water alone
  Hair Growth Inhibition: 15.9 ± 5.2%

## CCC[C@]1(O)CC[C@H]2[C@@H]3CCC4=CC(=O)CC[C@]4(C)[C@H]3CC[C@@]21C [17β-hydroxy-17α-propylandrost-4-en-3-one]
[3]
  reduction in hair growth of the hamster flank organ: substantial reduction in hair growth
  size of the flank organ: reduction in the size of the flank organ

## CC(C=NNC(=N)N)=NNC(=N)N [MGBG, methylglyoxal bis(guanylhydrazone)]
[1]; [7]
  Flank Organ Hair Mass, Treated: 1.54 ± .22 mg
[1]; [8]
  Hair Growth Inhibition: 40.3 ± 7.4%
[1]; [9]
  Hair Growth Inhibition: 42.3 ± 8.2%
  Flank Organ Hair Mass, Treated: 0.56 ± .11 mg

## NCCC[C@](N)(C(=O)O)C(F)F [DFMO, 2-(difluoromethyl)-ornithine]
[1]; [7]
  Flank Organ Hair Mass, Treated: 0.99 ± .08 mg
[1]; [8]
  Hair Growth Inhibition: 64.3 ± 3.7%
[1]; Table 2, 5% inhibitor, vehicle water alone, 14 applications over 18 days
  Flank Organ Hair Mass, Treated: 2.70 ± .22 mg
[1]; Table 2, 5% inhibitor, vehicle water alone
  Hair Growth Inhibition: 18.8 ± 3.7%
[1]; [9]
  Hair Growth Inhibition: 44.4 ± 18.2%
  Flank Organ Hair Mass, Treated: 0.49 ± .14 mg

## CC(=O)[C@H]1CC[C@H]2[C@@H]3CCC4=CC(=O)CC[C@]4(C)[C@H]3CC[C@]12C [progesterone]
[4]; females
  reducing sebum excretion rates: effective in reducing sebum excretion rates in females
[4]; males
  reducing sebum excretion rates: without effect in males
[5]
  effect on inhibition of hair growth: doubtful
[6]; female
  effectiveness of progesterone: effective in the female
[6]; male
  effectiveness of progesterone: not in the male

From patent publication US5132293A, “Enzymic alteration of hair growth” (priority 1991, dated 1992)
